Experimental data: ChEMBL document CHEMBL5375983, “Discovery of YSR734: A Covalent HDAC Inhibitor with Cellular Activity in Acute Myeloid Leukemia and Duchenne Muscular Dystrophy” (J Med Chem, 2023)
The source made the active and inactive calls. No cut-off for these calls is given here.

Experiments:
Histone deacetylase 2 [1] = target: T1, Histone deacetylase 2 (Homo sapiens, UniProt Q92769); test: Inhibition of HDAC2 (unknown origin) using 6-carboxyfluorescein peptide as substrate preincubated with compound followed by substrate addition by electrophoretic mobility shift assay
[2] = target: Histone deacetylase 2 (Mus musculus) (UniProt P70288); test: Inhibition of HDAC2 in mouse C2C12 cells at 5 uM incubated for 72 hrs by immunofluorescence analysis; assay type: cell-based
Histone deacetylase 3 = Histone deacetylase 3 (Homo sapiens, UniProt O15379); test: Inhibition of full length recombinant human HDAC3 expressed in Sf9 cells using 6-carboxyfluorescein peptide as substrate preincubated with compound for 6 hrs followed by substrate addition and measured after 3 hrs by electrophoretic mobility shift assay; assay type: cell-based
Histone deacetylase 11 = target: T2, Histone deacetylase 11 (Homo sapiens, UniProt Q96DB2); test: Inhibition of full length recombinant human HDAC11 expressed in Sf9 cells using 6-carboxyfluorescein peptide as substrate preincubated with compound for 6 hrs followed by substrate addition and measured after 17 hrs by electrophoretic mobility shift assay
T2 sequence (Q96DB2 whole entry): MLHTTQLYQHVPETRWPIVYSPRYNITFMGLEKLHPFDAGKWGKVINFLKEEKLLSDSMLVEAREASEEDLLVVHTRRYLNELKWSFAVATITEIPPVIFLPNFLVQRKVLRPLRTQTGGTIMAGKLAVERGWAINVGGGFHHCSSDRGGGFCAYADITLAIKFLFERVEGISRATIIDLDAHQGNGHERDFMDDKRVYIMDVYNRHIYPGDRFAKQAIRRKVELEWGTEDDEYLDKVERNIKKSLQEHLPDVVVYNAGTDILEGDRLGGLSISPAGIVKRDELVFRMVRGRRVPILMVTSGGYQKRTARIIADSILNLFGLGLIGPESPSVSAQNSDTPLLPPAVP

Histone deacetylase 5 = Histone deacetylase 5 (Homo sapiens, UniProt Q9UQL6); test: Inhibition of HDAC5 (unknown origin) using 6-carboxyfluorescein peptide as substrate preincubated with compound for 6 hrs followed by substrate addition by electrophoretic mobility shift assay
[3] = Glutathione reactivity assessed as compound consumption at 500 nM measured after 1 to 3 hrs by LC-MS/MS analysis; assay type: ADME; conditions: glutathione solution, time 1-3 hrs, read-out: Activity
MV4-11 [4] = test: Induction of apoptosis in human MV4-11 cells assessed as late apoptotic cells at 1 uM measured after 6 hrs by annexin V-FITC/PI staining based FACS assay (reference value: 16.21%); assay type: functional
[5] = target: T3, Protein deacetylase HDAC6 (Homo sapiens, UniProt Q9UBN7); test: Inhibition of full length recombinant human HDAC6 expressed in Sf9 cells using 6-carboxyfluorescein peptide as substrate preincubated with compound for 6 hrs followed by substrate addition and measured after 5 hrs by electrophoretic mobility shift assay
T3 sequence (Q9UBN7 whole entry): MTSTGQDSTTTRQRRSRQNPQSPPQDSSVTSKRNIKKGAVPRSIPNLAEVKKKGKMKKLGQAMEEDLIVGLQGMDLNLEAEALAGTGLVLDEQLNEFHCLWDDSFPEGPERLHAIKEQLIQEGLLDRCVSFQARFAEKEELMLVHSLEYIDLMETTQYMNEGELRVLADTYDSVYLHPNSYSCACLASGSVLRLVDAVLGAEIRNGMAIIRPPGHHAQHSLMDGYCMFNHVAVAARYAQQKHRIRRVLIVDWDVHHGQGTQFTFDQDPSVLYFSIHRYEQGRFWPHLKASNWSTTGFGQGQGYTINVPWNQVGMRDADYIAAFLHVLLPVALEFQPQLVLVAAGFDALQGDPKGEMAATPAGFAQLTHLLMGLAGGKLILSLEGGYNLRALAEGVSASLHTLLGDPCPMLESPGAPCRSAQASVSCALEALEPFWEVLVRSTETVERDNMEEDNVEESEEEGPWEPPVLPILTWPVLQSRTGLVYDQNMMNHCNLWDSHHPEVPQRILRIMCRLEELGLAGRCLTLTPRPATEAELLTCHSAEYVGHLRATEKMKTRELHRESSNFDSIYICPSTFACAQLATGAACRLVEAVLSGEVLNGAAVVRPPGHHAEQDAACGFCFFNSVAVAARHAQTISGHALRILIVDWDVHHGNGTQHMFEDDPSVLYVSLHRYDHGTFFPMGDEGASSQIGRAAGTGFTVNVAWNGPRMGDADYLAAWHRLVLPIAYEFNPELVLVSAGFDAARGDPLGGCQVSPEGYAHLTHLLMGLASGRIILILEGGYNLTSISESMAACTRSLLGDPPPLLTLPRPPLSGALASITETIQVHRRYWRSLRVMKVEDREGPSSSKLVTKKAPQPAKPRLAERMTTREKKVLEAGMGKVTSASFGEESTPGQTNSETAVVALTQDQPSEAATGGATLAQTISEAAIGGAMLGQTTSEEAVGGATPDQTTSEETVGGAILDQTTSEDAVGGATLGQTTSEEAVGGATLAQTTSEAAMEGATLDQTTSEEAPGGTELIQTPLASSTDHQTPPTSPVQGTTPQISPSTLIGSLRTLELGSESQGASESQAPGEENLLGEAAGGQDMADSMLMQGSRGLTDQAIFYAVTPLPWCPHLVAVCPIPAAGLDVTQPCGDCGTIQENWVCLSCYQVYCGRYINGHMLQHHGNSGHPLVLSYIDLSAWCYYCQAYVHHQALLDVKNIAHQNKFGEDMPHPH

Histone deacetylase 2 [6] = target: T1, Histone deacetylase 2; test: Inhibition of HDAC2 (unknown origin) using 6-carboxyfluorescein peptide as substrate preincubated with compound for 6 hrs followed by substrate addition by electrophoretic mobility shift assay
Histone deacetylase 2 [7] = target: T1, Histone deacetylase 2; test: Binding affinity to recombinant full length HDAC2 catalytic domain Cys274 (unknown origin) assessed as formation of single covalent adduct at 50 uM incubated for 2 hrs by trypsin-digest protein mapping analysis
MV4-11 [8] = test: Induction of apoptosis in human MV4-11 cells assessed as healthy cells at 1 uM measured after 6 hrs by annexin V-FITC/PI staining based FACS assay (reference value: 63.50%); assay type: functional
MV4-11 [9] = test: Induction of apoptosis in human MV4-11 cells assessed as healthy cells at 4 uM measured after 6 hrs by annexin V-FITC/PI staining based FACS assay (reference value: 63.50%); assay type: functional
Histone deacetylase 4 = Histone deacetylase 4 (Homo sapiens, UniProt P56524); test: Inhibition of HDAC4 (unknown origin) using 6-carboxyfluorescein peptide as substrate preincubated with compound for 6 hrs followed by substrate addition by electrophoretic mobility shift assay
Histone deacetylase 4, sequence (P56524 whole entry): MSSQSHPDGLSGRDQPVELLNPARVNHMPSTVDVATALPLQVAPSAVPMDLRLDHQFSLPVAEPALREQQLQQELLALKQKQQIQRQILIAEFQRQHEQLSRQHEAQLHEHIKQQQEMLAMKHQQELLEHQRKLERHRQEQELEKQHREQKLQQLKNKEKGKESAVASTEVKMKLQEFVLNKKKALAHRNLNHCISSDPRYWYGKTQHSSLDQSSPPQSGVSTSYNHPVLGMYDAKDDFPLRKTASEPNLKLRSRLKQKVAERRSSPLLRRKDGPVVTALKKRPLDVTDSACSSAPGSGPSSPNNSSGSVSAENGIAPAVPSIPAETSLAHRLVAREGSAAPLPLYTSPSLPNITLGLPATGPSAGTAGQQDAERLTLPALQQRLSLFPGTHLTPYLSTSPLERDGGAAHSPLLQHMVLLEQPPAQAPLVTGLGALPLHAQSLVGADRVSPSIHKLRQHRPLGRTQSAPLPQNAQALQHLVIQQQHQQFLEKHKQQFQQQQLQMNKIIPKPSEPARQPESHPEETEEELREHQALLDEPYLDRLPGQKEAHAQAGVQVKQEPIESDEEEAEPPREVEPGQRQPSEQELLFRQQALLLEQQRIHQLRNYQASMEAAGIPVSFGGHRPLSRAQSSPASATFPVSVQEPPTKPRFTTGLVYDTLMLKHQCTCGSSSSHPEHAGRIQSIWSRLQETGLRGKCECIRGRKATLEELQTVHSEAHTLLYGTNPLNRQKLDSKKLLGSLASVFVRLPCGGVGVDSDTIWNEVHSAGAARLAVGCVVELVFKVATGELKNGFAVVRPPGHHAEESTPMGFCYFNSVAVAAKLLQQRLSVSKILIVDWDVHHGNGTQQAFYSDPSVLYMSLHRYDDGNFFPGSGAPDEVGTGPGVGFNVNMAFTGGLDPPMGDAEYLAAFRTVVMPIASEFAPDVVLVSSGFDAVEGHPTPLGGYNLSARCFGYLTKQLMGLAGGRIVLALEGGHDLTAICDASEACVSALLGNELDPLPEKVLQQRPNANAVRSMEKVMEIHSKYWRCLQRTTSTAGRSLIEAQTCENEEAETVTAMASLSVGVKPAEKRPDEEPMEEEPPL

T1 sequence (Q92769 whole entry): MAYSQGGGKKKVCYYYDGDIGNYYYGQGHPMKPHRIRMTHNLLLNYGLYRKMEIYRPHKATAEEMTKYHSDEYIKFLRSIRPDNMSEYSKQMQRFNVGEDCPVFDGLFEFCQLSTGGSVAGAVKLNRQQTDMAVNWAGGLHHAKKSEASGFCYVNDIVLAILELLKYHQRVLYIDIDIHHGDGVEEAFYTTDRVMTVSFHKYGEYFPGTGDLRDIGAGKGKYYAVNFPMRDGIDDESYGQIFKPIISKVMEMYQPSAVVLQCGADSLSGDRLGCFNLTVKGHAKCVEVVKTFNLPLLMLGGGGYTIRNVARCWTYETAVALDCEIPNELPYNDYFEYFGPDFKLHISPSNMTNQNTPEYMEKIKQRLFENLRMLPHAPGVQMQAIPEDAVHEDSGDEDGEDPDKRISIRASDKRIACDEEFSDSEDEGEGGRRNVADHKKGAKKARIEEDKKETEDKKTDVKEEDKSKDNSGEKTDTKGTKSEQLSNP
Histone deacetylase 3, sequence (O15379 whole entry): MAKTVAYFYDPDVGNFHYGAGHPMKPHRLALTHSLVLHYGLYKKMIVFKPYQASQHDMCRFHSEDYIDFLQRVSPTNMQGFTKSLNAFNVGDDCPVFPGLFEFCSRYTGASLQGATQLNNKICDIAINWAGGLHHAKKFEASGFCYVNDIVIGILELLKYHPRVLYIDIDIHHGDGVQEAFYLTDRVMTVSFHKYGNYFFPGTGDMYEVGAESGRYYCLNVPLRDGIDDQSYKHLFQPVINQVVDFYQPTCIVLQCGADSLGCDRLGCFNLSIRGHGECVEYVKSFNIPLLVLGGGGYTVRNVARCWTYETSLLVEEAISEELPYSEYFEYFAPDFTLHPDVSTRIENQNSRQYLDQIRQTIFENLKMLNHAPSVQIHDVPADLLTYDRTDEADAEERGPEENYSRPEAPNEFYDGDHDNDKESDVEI
Histone deacetylase 2 (Mus musculus), sequence (P70288 whole entry): as the sequence (Q92769 whole entry) above, with V289A, T477P, T480A counted along it
Histone deacetylase 5, sequence (Q9UQL6 whole entry): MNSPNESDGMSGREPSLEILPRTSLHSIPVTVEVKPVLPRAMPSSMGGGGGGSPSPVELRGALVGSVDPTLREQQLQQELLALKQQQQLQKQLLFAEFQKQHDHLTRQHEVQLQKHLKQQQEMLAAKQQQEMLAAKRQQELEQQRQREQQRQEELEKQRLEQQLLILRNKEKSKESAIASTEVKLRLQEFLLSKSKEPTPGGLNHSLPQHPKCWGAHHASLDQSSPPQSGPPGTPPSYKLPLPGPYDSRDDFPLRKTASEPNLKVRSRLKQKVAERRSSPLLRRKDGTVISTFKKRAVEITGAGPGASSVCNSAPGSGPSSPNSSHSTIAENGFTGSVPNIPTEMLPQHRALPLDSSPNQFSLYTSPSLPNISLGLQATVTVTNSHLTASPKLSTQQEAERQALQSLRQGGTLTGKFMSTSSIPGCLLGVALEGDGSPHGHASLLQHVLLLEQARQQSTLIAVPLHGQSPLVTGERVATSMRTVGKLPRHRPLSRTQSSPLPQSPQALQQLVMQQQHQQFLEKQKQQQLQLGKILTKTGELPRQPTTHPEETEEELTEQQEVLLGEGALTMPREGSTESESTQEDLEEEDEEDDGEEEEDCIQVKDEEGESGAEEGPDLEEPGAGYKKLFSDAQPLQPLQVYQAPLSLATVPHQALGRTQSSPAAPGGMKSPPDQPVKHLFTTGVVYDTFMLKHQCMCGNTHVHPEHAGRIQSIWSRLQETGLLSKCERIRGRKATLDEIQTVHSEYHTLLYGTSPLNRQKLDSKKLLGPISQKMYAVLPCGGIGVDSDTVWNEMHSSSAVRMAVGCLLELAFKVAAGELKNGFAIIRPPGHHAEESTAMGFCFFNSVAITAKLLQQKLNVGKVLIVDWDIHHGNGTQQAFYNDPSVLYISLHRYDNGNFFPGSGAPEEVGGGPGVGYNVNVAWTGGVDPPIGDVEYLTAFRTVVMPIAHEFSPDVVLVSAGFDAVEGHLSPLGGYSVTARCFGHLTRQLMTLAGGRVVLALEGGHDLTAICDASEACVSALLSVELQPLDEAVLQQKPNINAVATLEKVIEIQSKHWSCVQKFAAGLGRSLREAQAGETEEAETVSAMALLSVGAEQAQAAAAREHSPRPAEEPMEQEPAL

IC50 (Histone deacetylase 2 [1]): 0.808 µM
inhibition [2]: Active
IC50 (Histone deacetylase 3): 0.143 µM
IC50 (Histone deacetylase 11): > 2 µM
IC50 (Histone deacetylase 5): > 10 µM
degraded at 0.5 µM [3]: > 50%
IC50 [5]: > 10 µM
IC50 (Histone deacetylase 2 [6]): 0.154 µM
Activity (Histone deacetylase 2 [7]): Active
IC50 (Histone deacetylase 4): > 10 µM
SMILES: Nc1ccccc1NC(=O)c1ccc(CNC(=O)OC2CCN(S(=O)(=O)c3c(F)c(F)c(F)c(F)c3F)CC2)cc1
Activity (MV4-11 [4]): 48.31%
Activity (MV4-11 [8]): 23.54%
Activity (MV4-11 [9]): 4.57%
